{"source": "patent US20220125893A1", "about": "“METHODS FOR TREATING ARTHRITIS USING SPL-108 PEPTIDE” (Splash Pharmaceuticals, Inc., priority 2019, published 2022)", "key": {"[1]": {"test_system": "pre-existing osteoarthritis", "assay": "Osteoarthritis symptoms in ovarian cancer patients on SPL-108 plus paclitaxel", "type": "in vivo, human", "details": "two patients; SPL-108 150 mg twice a day with paclitaxel 80 mg/m^2 weekly on Days 1, 8, 15, three 28-day cycles", "method": "Two patients diagnosed with […] ovarian cancer, and enrolled in a clinical trial for evaluating the efficacy of SPL-108 in combination with paclitaxel (standard-of-care treatment), reported relief from symptoms of pre-existing osteoarthritis. Each patient received SPL-108 150 mg twice a day and Paclitaxel 80 mg/m^2 weekly on Days 1, 8, and 15, in three 28-day cycles. Each patient received a total of 25,200 mg of SPL-108 over the course of treatment."}, "[2]": {"test_system": "fibroblast-like synoviocytes (FLSs)", "assay": "In vitro Matrigel invasion assay of FLSs", "type": "cell-based", "details": "0.1, 1.0, 10.0, 100 μM; presence and absence of PDGF 10 ng/mL", "method": "FIG. 8A and FIG. 8B show the effects of SPL-108 (A6) on the invasion of FLSs using an in vitro Matrigel invasion assay. Platelet-derived growth factor (10 ng/mL) was used to stimulate invasion and the area of invasion was measured in […] before and after the addition of 0.1, 1.0, 10.0, and 100 μM SPL-108 (A6) in the presence and absence of PDGF."}, "CIA mice": {"test_system": "CIA mice", "assay": "Collagen-induced arthritis (CIA) mouse model", "type": "in vivo", "excerpt": "FIGS. 10A, 10B, 10C, 10D, and 10E show histology and histological scores in ankles collected at the end of the experiments. At the end of the experiment, ankle bones were collected and decalcified in EDTA for 10 days. Decalcified bones were embedded and sagittal sections obtained and stained. H&E staining was used to help score cell infiltration, synovial thickness, and bone damage (FIG. 10A). In the figure, safranin staining will help to score cartilage damage. Black arrows show infiltration in arthritic mice treated with PBS compared to control mice without arthritis. White arrows show lack of safranin staining in the arthritic mice cartilage because of proteoglycan degradation compared to control mice without arthritis.\nIn the examples below, mice were used in a collagen-induced arthritis (CIA) model, a commonly used model to examine pathogenesis of rheumatoid arthritis. […] At day 0, mice were immunized with type II collagen/CFA. […] Arthritis onset subsequently occurs 4-10 days after the day 28 LPS injection. The experimental groups consisted of four groups: group 1: 6 CIA mice treated with vehicle; group 2: 6 CIA mice treated with […] SPL-108 twice a day, starting at arthritis onset (between day 32 to 36); group 3: 6 CIA mice treated with 100 mg/kg SPL-108 twice a day, starting at arthritis onset (between day 32 to 36); and group 4: 6 mice without CIA and not treated (negative control). In preventive strategies, a prophylactic treatment of SPL-108 would be started at day 0, at the time of first immunization.\nFIGS. 10A, 10B, 10C, 10D, and 10E show histological scores of ankle bones collected at the end of experiments. At the end of the experiment, ankles were collected and decalcified in EDTA for 10 days. They were embedded and sagittal sections were obtained and stained. H&E staining was used to help score cell infiltration, synovial thickness, and bone damage. In the figure, safranin staining will help to score cartilage damage. Black arrows show infiltration in arthritic mice treated with PBS compared to control mice without arthritis. White arrows show lack of safranin staining (red) in the arthritic mice cartilage because of proteoglycan degradation compared to control mice without arthritis."}, "[3]": {"test_system": "fibroblast-like synoviocytes (FLSs)", "assay": "In vitro Scratch migration assay of FLSs", "type": "cell-based", "details": "0.1, 1.0, 10.0, 100 μM", "method": "Cells were grown to confluence and a thin “wound” was introduced by scratching with a pipette tip. Cells at the wound edge polarize and migrate into the wound space."}, "[4]": {"test_system": "arthritis-induced osteoclastogenesis", "details": "other animal studies; cited from earlier work"}, "[5]": {"details": "ankles at end of experiment, H&E staining"}, "[6]": {"details": "either dose (50 or 100 mg/kg twice a day)"}}, "data": [{"substance": "Ac-KPSSPPEE-NH2 [SPL-108]", "values": [{"measurement": "improvement in osteoarthritis symptoms", "setting": "[1]", "result": "reduction to elimination of joint pain"}, {"measurement": "invasion of FLSs (area of invasion)", "setting": "[2]", "result": "inhibited the invasion of FLSs in a dose-dependent manner"}, {"measurement": "clinical score vs vehicle, significance", "setting": "CIA mice; 50 mg/kg twice a day", "result": "significantly different at day 4, 5, 6, 7"}, {"measurement": "paw swelling vs vehicle, significance", "setting": "CIA mice; 50 mg/kg twice a day", "result": "significantly different from day 11 to day 19"}, {"measurement": "body weight vs vehicle, significance", "setting": "CIA mice; 50 mg/kg twice a day from arthritis onset", "result": "significantly different at day 7 and 9"}, {"measurement": "clinical score vs vehicle, significance", "setting": "CIA mice; 100 mg/kg twice a day", "result": "significantly different from day 4 to day 20"}, {"measurement": "paw swelling vs vehicle, significance", "setting": "CIA mice; 100 mg/kg twice a day", "result": "significantly different from day 11 to day 19"}, {"measurement": "body weight vs vehicle, significance", "setting": "CIA mice; 100 mg/kg twice a day from arthritis onset", "result": "significantly different at day 5, 7, 9 and 11"}, {"measurement": "body weight decrease", "setting": "CIA mice; CIA mice, through 11 days after disease onset, vehicle 3 grams decrease", "result": "~1", "unit": "gram"}, {"measurement": "bone damage (histological score)", "setting": "CIA mice; [5]", "result": "reduction"}, {"measurement": "synovial hypertrophy (histological score)", "setting": "CIA mice; [5]", "result": "reduction"}, {"measurement": "synovial infiltration (histological score)", "setting": "CIA mice; [5]", "result": "reduction"}, {"measurement": "cartilage damage (histological score)", "setting": "CIA mice; ankles at end of experiment, safranin staining", "result": "reduction"}, {"measurement": "clinical score compared to vehicle", "setting": "CIA mice; [6]", "result": "lower"}, {"measurement": "paw swelling (paw size) compared to vehicle", "setting": "CIA mice; [6]", "result": "lower"}, {"measurement": "migration of FLSs into wound space", "setting": "[3]", "result": "inhibited the migration of FLSs in a dose-dependent manner"}, {"measurement": "arthritis-induced osteoclastogenesis", "setting": "[4]", "result": "inhibited arthritis-induced osteoclastogenesis"}]}]}
